Laboratory results taken from US4110330A, “5'-Acetonylvincristine and related compounds” (priority 1977, dated 1978).
Values joined by “and” are separate entries in the source; they are usually repeats but may differ in a detail not shown here. Equal entries are not always repeated.

Columns and labels:
[1] = tested on: experimental maliganancies; conditions: background; cited from earlier work
[2] = tested on: Gardner lymphosarcoma (GLS); assay: Transplanted tumor GLS in mice, percent inhibition of tumor growth or percent prolongation of survival time; type: in vivo
Procedure: (§1) The compounds of this invention are antimitotic agents being active in tissue culture and against transplanted tumors in mice.
(§2) The following table -- Table 1 -- gives the results of several experiments in which mice bearing transplanted tumors were treated successfully with a compound of this invention. The following abbreviations are employed: Compound A is 5'-acetonylvincristine sulfate; B and C are the corresponding dehydrated hemiketal sulfate and free base; D is 4-desacetyl-5'-acetonylvincristine; GLS is Gardner lymphosarcoma; ROS is Ridgeway Osteogenic Sarcoma and CA755 is an adenocarcinoma. In the table, column 1 gives the compound designation; column 2, the abbreviation of the name of transplanted tumor; column 3, the dose level and the number of days that dosage was administered; and column 4, the percent inhibition of tumor growth or percent prolongation of survival time

[3] = tested on: Ridgeway Osteogenic Sarcoma (ROS); assay: Transplanted tumor ROS in mice, percent inhibition of tumor growth or percent prolongation of survival time; type: in vivo
Procedure: as §1, §2

CA755 (adenocarcinoma) = assay: Transplanted tumor CA755 in mice, percent inhibition of tumor growth or percent prolongation of survival time; type: in vivo
Procedure: as §1, §2

[4] = 0.05 mg/kg × 9 days, marked *: not statistically significantly different from control
[5] = 0.3 mg/kg × 7 days, marked *: not statistically significantly different from control

SMILES: CCC1(O)CN2CCc3c([nH]c4ccccc34)C(C(=O)OC)(c3cc4c(cc3OC)N(C)C3C(O)(C(=O)OC)CC5(CC)C=CCN6CCC43C65)CC(C2)C1O (centres unmarked) [4-desacetoxy-3'-hydroxyvinblastine]
- activity in the treatment of experimental malignancies in animals [1]: active

SMILES: CC[C@]1(O)C[C@H]2CN(CCc3c([nH]c4ccccc34)[C@@](C(=O)OC)(c3cc4c(cc3OC)N(C)[C@@H]3[C@]45CCN4CC=C[C@@](CC)(C[C@]3(O)C(=O)OC)[C@H]45)C2)C1 [4-desacetoxyvinblastine]
- activity in the treatment of experimental malignancies in animals [1]: active

SMILES: CCC12CC3CN(CCc4c([nH]c5ccccc45)C(C(=O)OC)(c4cc5c(cc4OC)N(C=O)C4C(O)(C(=O)OC)C(OC(C)=O)C6(CC)C=CCN7CCC54C76)C3)C1C=C(C)O2.O=S(=O)(O)O (centres unmarked) [B, 2",3"-dehydro-5'-acetonylvincristine 1",2"-hemiketal]
- percent inhibition of tumor growth or percent prolongation of survival time [2, 4]: 13%
- percent inhibition of tumor growth or percent prolongation of survival time ([2]; 0.1 mg/kg × 7 days): 0%
- percent inhibition of tumor growth or percent prolongation of survival time ([2]; 0.1 mg/kg × 9 days, marked *: not statistically significantly different from control): 21%
- percent inhibition of tumor growth or percent prolongation of survival time ([2]; 0.2 mg/kg × 7 days, marked *: not statistically significantly different from control): 21%
- percent inhibition of tumor growth or percent prolongation of survival time ([2]; 0.2 mg/kg × 9 days, marked *: not statistically significantly different from control): 8%
- percent inhibition of tumor growth or percent prolongation of survival time [2, 5]: 22% and 37%
- percent inhibition of tumor growth or percent prolongation of survival time ([2]; 0.3 mg/kg × 9 days): 36%
- percent inhibition of tumor growth or percent prolongation of survival time ([2]; 0.5 mg/kg × 7 days): 54% and 39% and 59%
- percent inhibition of tumor growth or percent prolongation of survival time ([2]; 0.5 mg/kg × 9 days): 71%
- percent inhibition of tumor growth or percent prolongation of survival time ([2]; 1.0 mg/kg × 7 days): 100% and 76% and 96%
- percent inhibition of tumor growth or percent prolongation of survival time ([2]; 1.0 mg/kg × 9 days): 93%
- percent inhibition of tumor growth or percent prolongation of survival time ([2]; 5.0 mg/kg × 7 days): 100%
- percent inhibition of tumor growth or percent prolongation of survival time ([3]; 0.1 mg/kg × 10 days): 39%
- percent inhibition of tumor growth or percent prolongation of survival time ([3]; 0.2 mg/kg × 10 days): 26%
- percent inhibition of tumor growth or percent prolongation of survival time ([3]; 0.3 mg/kg × 10 days, marked *: not statistically significantly different from control): 14%
- percent inhibition of tumor growth or percent prolongation of survival time ([3]; 0.5 mg/kg × 10 days, marked *: not statistically significantly different from control): 0%
- percent inhibition of tumor growth or percent prolongation of survival time ([3]; 1.0 mg/kg × 10 days, marked *: not statistically significantly different from control): 0%

SMILES: CCC12CC3CN(CCc4c([nH]c5ccccc45)C(C(=O)OC)(c4cc5c(cc4OC)N(C=O)C4C(O)(C(=O)OC)C(OC(C)=O)C6(CC)C=CCN7CCC54C76)C3)C1C=C(C)O2 (centres unmarked) [C, 2",3"-dehydro-5'-acetonylvincristine 1",2"-hemiketal]
- percent inhibition of tumor growth or percent prolongation of survival time ([2]; 0.5 mg/kg × 7 days): 57%
- percent inhibition of tumor growth or percent prolongation of survival time ([2]; 0.5 mg/kg × 7 days, marked *: not statistically significantly different from control): 2%
- percent inhibition of tumor growth or percent prolongation of survival time ([2]; 1.0 mg/kg × 7 days): 100%
- percent inhibition of tumor growth or percent prolongation of survival time ([2]; 1.0 mg/kg × 7 days, marked *: not statistically significantly different from control): 5%
- percent inhibition of tumor growth or percent prolongation of survival time ([2]; 5.0 mg/kg × 7 days): 100%

SMILES: CCC1(O)CC2CN(CCc3c([nH]c4ccccc34)C(C(=O)OC)(c3cc4c(cc3OC)N(C=O)C3C(O)(C(=O)OC)C(OC(C)=O)C5(CC)C=CCN6CCC43C65)C2)C1CC(C)=O.O=S(=O)(O)O (centres unmarked) [Compound A, 5'-acetonylvincristine sulfate]
- percent inhibition of tumor growth or percent prolongation of survival time (CA755 (adenocarcinoma); 0 mg/kg × 8 days (so in the source)): 39%
- percent inhibition of tumor growth or percent prolongation of survival time (CA755 (adenocarcinoma); 0.3 mg/kg × 8 days, marked *: not statistically significantly different from control): 21%
- percent inhibition of tumor growth or percent prolongation of survival time (CA755 (adenocarcinoma); 0.5 mg/kg × 8 days): 39%
- percent inhibition of tumor growth or percent prolongation of survival time (CA755 (adenocarcinoma); 5.0 mg/kg × 8 days): 34%
- percent inhibition of tumor growth or percent prolongation of survival time [2, 4]: 8%
- percent inhibition of tumor growth or percent prolongation of survival time ([2]; 0.3 mg/kg × 7-9 days): 39%
- percent inhibition of tumor growth or percent prolongation of survival time ([2]; 0.3 mg/kg × 7-9 days, marked *: not statistically significantly different from control): 13%
- percent inhibition of tumor growth or percent prolongation of survival time ([2]; 0.5 mg/kg × 7-9 days): 49% and 65%
- percent inhibition of tumor growth or percent prolongation of survival time ([2]; 1.0 mg/kg × 7-9 days): 81% and 86%
- toxicity ([3]; 0.05 mg/kg × 10 days): TOXIC
- percent inhibition of tumor growth or percent prolongation of survival time ([3]; 0.1 mg/kg × 10 days): 0%
- percent inhibition of tumor growth or percent prolongation of survival time ([3]; 0.2 mg/kg × 10 days): 60%
- percent inhibition of tumor growth or percent prolongation of survival time ([3]; 0.3 mg/kg × 10 days): 34%
- toxicity ([3]; 0.5 mg/kg × 10 days): TOXIC
- toxicity ([3]; 1.0 mg/kg × 10 days): TOXIC

SMILES: CCC1(O)CC2CN(CCc3c([nH]c4ccccc34)C(C(=O)OC)(c3cc4c(cc3OC)N(C=O)C3C(O)(C(=O)OC)C(O)C5(CC)C=CCN6CCC43C65)C2)C1CC(C)=O (centres unmarked) [D, 4-desacetyl-5'-acetonylvincristine]
- percent inhibition of tumor growth or percent prolongation of survival time [2, 5]: 0%
- percent inhibition of tumor growth or percent prolongation of survival time ([2]; 0.5 mg/kg × 7 days): 37% and 26%
- percent inhibition of tumor growth or percent prolongation of survival time ([2]; 1.0 mg/kg × 7 days): 100% and 62%

SMILES: CC[C@]1(O)C[C@@H]2CN(CCc3c([nH]c4ccccc34)[C@@](C(=O)OC)(c3cc4c(cc3OC)N(C)[C@H]3[C@@](O)(C(=O)OC)[C@H](OC(C)=O)[C@]5(CC)C=CCN6CC[C@]43[C@@H]65)C2)C1 [VLB, vincaleukoblastine]
- activity in the treatment of experimental malignancies in animals [1]: active

SMILES: CCC1CC2CN(CCc3c([nH]c4ccccc34)C(C(=O)OC)(c3cc4c(cc3OC)N(C)C3C(O)(C(=O)OC)C(OC(C)=O)C5(CC)C=CCN6CCC43C65)C2)C1 (centres unmarked) [deoxy VLB "A"]
- activity in the treatment of experimental malignancies in animals [1]: active

SMILES: CCC1(O)CN2CCc3c([nH]c4ccccc34)C(C(=O)OC)(c3cc4c(cc3OC)N(C)C3C(O)(C(=O)OC)C(OC(C)=O)C5(CC)C=CCN6CCC43C65)CC(O)(C2)C1 (centres unmarked) [leurocolombine]
- activity in the treatment of experimental malignancies in animals [1]: active

SMILES: CC[C@]1(O)C[C@H]2CN(CCc3c([nH]c4ccccc34)[C@@](C(=O)OC)(c3cc4c(cc3OC)N(C=O)[C@H]3[C@@](O)(C(=O)OC)[C@H](OC(C)=O)[C@]5(CC)C=CCN6CC[C@]43[C@@H]65)C2)C1 [leurocristine]
- activity in the treatment of experimental malignancies in animals [1]: active

SMILES: CC[C@]12CN3CCc4c([nH]c5ccccc45)[C@@](C(=O)OC)(c4cc5c(cc4OC)N(C=O)[C@H]4[C@@](O)(C(=O)OC)[C@H](OC(C)=O)[C@]6(CC)C=CCN7CC[C@]54[C@@H]76)C[C@@H](C3)[C@H]1O2 [leuroformine, N-formylleurosine]
- activity in the treatment of experimental malignancies in animals [1]: active

SMILES: CC[C@@]1(O)C[C@@H]2CN(CCc3c([nH]c4ccccc34)[C@@](C(=O)OC)(c3cc4c(cc3OC)N(C)[C@H]3[C@@](O)(C(=O)OC)[C@H](OC(C)=O)[C@]5(CC)C=CCN6CC[C@]43[C@@H]65)C2)C1 [leurosidine]
- activity in the treatment of experimental malignancies in animals [1]: active

SMILES: CC[C@]12CN3CCc4c([nH]c5ccccc45)[C@@](C(=O)OC)(c4cc5c(cc4OC)N(C)[C@H]4[C@@](O)(C(=O)OC)[C@H](OC(C)=O)[C@]6(CC)C=CCN7CC[C@]54[C@@H]76)C[C@H](C3)[C@H]1O2 [leurosine]
- activity in the treatment of experimental malignancies in animals [1]: active

SMILES: CCC1(O)CN2CCc3c([nH]c4ccccc34)C(C(=O)OC)(c3cc4c(cc3OC)N(C)C3C(O)(C(=O)OC)C(OC(C)=O)C5(CC)C=CCN6CCC43C65)CC(C2)C1O (centres unmarked) [vincadioline]
- activity in the treatment of experimental malignancies in animals [1]: active
